# Results published in PMC11305387, “AlphaFold accelerated discovery of psychotropic agonists targeting the trace amine–associated receptor 1” (Science Advances, 2024).
# Experiments:
# hTAAR1 = molecular target: T1, hTAAR1 (Homo sapiens, UniProt Q96RJ0); test: G protein (mini-Gs) recruitment luminescence complementation assay, agonist mode; type: cell-based
# T1 construct: expressed in transfected cells; host or cells: Expi293F
# T1 sequence (Q96RJ0 1-339): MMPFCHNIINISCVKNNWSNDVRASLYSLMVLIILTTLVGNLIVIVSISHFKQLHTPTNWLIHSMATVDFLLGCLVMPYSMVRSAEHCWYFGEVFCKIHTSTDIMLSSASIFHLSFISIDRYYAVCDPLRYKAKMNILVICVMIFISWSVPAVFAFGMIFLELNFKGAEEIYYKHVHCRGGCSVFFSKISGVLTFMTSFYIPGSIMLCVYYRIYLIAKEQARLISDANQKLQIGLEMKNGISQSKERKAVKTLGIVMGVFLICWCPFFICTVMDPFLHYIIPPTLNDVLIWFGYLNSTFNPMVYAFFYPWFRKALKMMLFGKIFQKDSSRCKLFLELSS
# Procedure: The 62 predicted ligands were purchased from commercial vendors and tested for activity at a concentration of 20 μM in a luminescence complementation–based assay measuring recruitment of mini-Gs to the human TAAR1 ([38]).
# To monitor TAAR1 activation by compounds, we used our previously described system. […] Cells were then reseeded in solid white, 96-well plates (Corning) with 90 μl of cell suspension per well. Luminescence was read using a plate reader for 5 min (SPARK 10 M, Tecan) before the addition of compounds to ensure signal stability. Ten microliters of each compound diluted in DPBS was added, and luminescence from each well was read for 10 min, with 100-ms read time per well. The A2AR counter-screen was performed using the same protocol. In these experiments, the hTAAR1 was replaced by a C-terminally SmBiT-tagged hA2AR construct.
# [1] = Plasma protein binding (rapid equilibrium dialysis); type: in vitro ADME; details: pH 7.4
# Procedure: Pooled human plasma was provided by Uppsala Academic Hospital and was collected from two donors (nonsmoking) (citric acid). In brief, 0.2 ml of the plasma (50% plasma and 50% isotonic buffer) test solution (typically, 10 μM final compound concentration) was transferred to the membrane tube in the rapid equilibrium dialysis (RED) insert (Thermo Fisher Scientific). Isotonic phosphate buffer (0.35 ml; pH 7.4) was added to the other side of the membrane. The 96-well base plate was then sealed with an adhesive plastic film (Scotch Pad) to prevent evaporation. The sample was incubated with rapid rotation (>900 rpm) on a Kisker rotational incubator at 37°C for 4 hours to achieve equilibrium. A stability test of the test solution was prepared (to allow detection of drug degradation), and 100 μl of the plasma test solution (in a plastic vial or on a sealed plate) was incubated at 37°C for 4 hours (or as long as the dialysis time). The plasma test solution was frozen directly after the administration to prevent any degradation. Before LC-MS/MS analysis, the plasma and buffer samples were treated with the addition of methanol (1:3) containing Warfarin as internal standard to precipitate proteins. The standard curve was created using the plasma standard. The plate was then sealed and centrifuged, and the supernatant was analyzed by LC-MS/MS ([78]).
# H1 receptor = molecular target: T2, H1 receptor (Homo sapiens, UniProt P35367); test: PRESTO-TANGO β-arrestin recruitment; type: cell-based; details: concentration-response curves (fig. S10)
# T2 construct: TANGO fusion module (own knowledge, Kroeze et al.: C-terminal V2 tail, TEV site and tTA); 1000000068; host or cells: HTLA (HEK293-derived)
# Procedure: (§1) Assessment of receptor activation by compounds at all human aminergic receptors were carried out using a modified version of the PRESTO-TANGO method. […] The plate was spun down, and 5 μl of a 1:25 dilution (in DPBS) of polyethylenimine (PEI) derivative (Transporter 5, Polysciences) was added (1:4 cDNA to PEI ratio) and incubated for 20 min at room temperature (RT). […] Luminescence signal was detected using a plate-reader (SPARK, Tecan) with 100-ms integration time and a 100-ms delay between well reads.
# 5-HT1A receptor = molecular target: T3, 5-HT1A receptor (Homo sapiens, UniProt P08908); test: PRESTO-TANGO β-arrestin recruitment; type: cell-based; details: panel screen
# T3 construct: TANGO fusion module (own knowledge, Kroeze et al.: C-terminal V2 tail, TEV site and tTA); 1000000068; host or cells: HTLA (HEK293-derived)
# T3 sequence (P08908 1-422): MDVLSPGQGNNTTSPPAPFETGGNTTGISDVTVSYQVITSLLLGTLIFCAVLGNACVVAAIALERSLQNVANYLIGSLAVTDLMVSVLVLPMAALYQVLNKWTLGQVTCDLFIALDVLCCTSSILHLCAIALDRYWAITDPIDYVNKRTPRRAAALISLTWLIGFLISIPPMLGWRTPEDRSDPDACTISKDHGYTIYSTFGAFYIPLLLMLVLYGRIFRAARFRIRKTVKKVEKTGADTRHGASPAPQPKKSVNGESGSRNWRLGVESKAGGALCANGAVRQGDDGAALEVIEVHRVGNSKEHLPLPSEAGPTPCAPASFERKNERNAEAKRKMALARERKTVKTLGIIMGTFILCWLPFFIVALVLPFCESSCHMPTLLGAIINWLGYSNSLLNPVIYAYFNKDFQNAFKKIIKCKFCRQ
# Procedure: as §1
# [2] = In vivo pharmacokinetics, plasma and brain; parameters: species or system mice
# Procedure: Brains were collected and snap-frozen. Blood was sampled from the cervical vein upon decapitation in Eppendorf tubes containing 50 μl of 0.5 M EDTA and immediately centrifuged for 10 min at 3000g and 4°C. Isolated plasma was then transferred into clean polypropylene tubes. All samples were stored at −20°C before analysis.
# Brains were weighed and homogenized 1:3 (w/v) in PBS using a Minilys Bead Homogenizer (Bertin Instruments). […] Samples were precipitated with acetonitrile (1:4) containing warfarin as analytical internal standard. The supernatants were injected into the LC-MS/MS system consisting of a TQ-S micro mass spectrometer coupled to an Acquity UPLC (Waters Corp, MA, USA). […] The obtained concentrations of brain homogenate samples were multiplied by 4 to account for the dilution during preparation of the homogenate. Pharmacokinetic parameters were determined from the experimental data by applying non-compartmental analysis using Microsoft Excel spreadsheet. The brain-to-plasma partition coefficient (Kp,brain) was calculated as the ratio of the area under the concentration–time curves (AUC) in brain versus plasma (AUCbrain/AUCplasma).
# [3] = Metabolic stability in liver microsomes; details: mouse liver microsomes, 1 μM
# T2 sequence (P35367 whole entry, the tested form may be a part): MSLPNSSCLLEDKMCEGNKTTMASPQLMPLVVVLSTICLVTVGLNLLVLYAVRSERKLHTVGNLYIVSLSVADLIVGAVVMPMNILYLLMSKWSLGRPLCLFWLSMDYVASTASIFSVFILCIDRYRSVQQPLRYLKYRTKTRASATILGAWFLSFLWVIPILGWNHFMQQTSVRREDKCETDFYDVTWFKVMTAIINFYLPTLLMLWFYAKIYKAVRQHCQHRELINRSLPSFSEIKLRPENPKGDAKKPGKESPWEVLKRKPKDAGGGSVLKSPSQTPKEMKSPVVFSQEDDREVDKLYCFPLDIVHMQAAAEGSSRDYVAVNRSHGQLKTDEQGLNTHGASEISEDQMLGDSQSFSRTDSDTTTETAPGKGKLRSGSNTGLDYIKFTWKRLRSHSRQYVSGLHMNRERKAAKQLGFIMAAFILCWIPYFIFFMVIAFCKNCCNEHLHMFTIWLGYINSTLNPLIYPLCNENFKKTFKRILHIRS
smiles,measurement,setting,value
CC1=C(c2ccco2)CNCC1 [Compound 65],EC50,"hTAAR1; TAAR1, G protein recruitment assay, read-out: pEC50 (converted)",25.1 nM
same,fold more potent than Ulotaront,hTAAR1; TAAR1 G protein recruitment,> 25 fold
same,"fraction unbound at 4 h, 10 μM","[1]; human, pooled human plasma (50% plasma and 50% isotonic buffer)",0.61
same,"fraction unbound at 4 h, 10 μM","[1]; mouse, mouse plasma (50% plasma and 50% isotonic buffer)",0.81
same,agonism at the H1 receptor,H1 receptor,lacked agonism
same,activation of 5-HT1A receptor,5-HT1A receptor,did not observe a considerable activation
same,Clearance,"[2]; after intraperitoneal administration, 1 mg/kg, mice, estimated",225 ml/min per kg
same,brain concentration by 4 hours,"[2]; below lower limit of quantification, mice, i.p. 1 mg/kg",< 40 pmol/g
same,Kp,"[2]; male, C57BL/6, mouse, brain and plasma, intraperitoneal, 1 mg/kg, total concentrations, AUCbrain/AUCplasma, read-out: brain-to-plasma partition coefficient Kp,brain",7.9
same,half-life,"[2]; male, C57BL/6, mouse, ip, plasma, mice, intraperitoneal 1 mg/kg",17 min
same,concentration at 4 h,"[2]; male, C57BL/6, mouse, plasma, ip, below lower limit of quantification, mice, i.p. 1 mg/kg",< 5 nM
same,Cmax,"[2]; male, C57BL/6, mouse, plasma, ip, mice, intraperitoneal 1 mg/kg, read-out: maximum plasma concentration (Cmax)",850 ± 172 nM
same,Tmax,"[2]; male, C57BL/6, mouse, plasma, ip, mice, intraperitoneal 1 mg/kg, read-out: time to maximum plasma concentration",≤ 5 min
same,maximum concentration in brain,"[2]; mice, intraperitoneal 1 mg/kg",4707 ± 766 pmol/g
same,time to maximum brain concentration,"[2]; mice, intraperitoneal 1 mg/kg",≤ 5 min
same,volume of distribution (V),"[2]; mice, intraperitoneal 1 mg/kg",6.3 L/kg
same,intrinsic clearance CLint,[3],7 μl/min per mg
